The target of the assay is T1, MAL2 (GFP-MAL2) (Homo sapiens, UniProt Q969L2).
T1 construct: GFP fusion (GFP-MAL2) transiently expressed in HEK293T, diluted cell lysate, not purified
Nature of the assay: microscale thermophoresis, GFP-MAL2 in HEK293T lysate. It counts as binding. The source says:
microscale thermophoresis, GFP-MAL2 in HEK293T lysate on MAL2 (GFP-MAL2) | only sarizotan could assemble with MAL2, with a dissociation constant (Kd)
In general terms: MST reads how a fluorescent partner responds to local heating, with and without ligand.

Molecules are shown by their SMILES.

For 1 compound, Kd results are on record in PMC11169275, “MAL2 reprograms lipid metabolism in intrahepatic cholangiocarcinoma via EGFR/SREBP-1 pathway based on single-cell RNA sequencing” (Cell Death & Disease, 2024).

As usually defined, the Kd is the free concentration of one partner at which half of the binding sites on the other are occupied at equilibrium, for simple one-to-one binding.

T1 sequence (Q969L2 whole entry, the tested form may be a part): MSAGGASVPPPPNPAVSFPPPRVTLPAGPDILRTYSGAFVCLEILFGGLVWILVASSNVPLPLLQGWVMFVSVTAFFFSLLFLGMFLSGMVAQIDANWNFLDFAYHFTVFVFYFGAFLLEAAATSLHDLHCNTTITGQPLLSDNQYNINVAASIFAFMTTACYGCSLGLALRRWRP

As to `Fc1ccc(-c2cncc(CNC[C@H]3CCc4ccccc4O3)c2)cc1` [sarizotan], binding was put at a Kd of 36.1 µM. That is a double-digit micromolar value.
